Test results: PMC4694998, “Suppression of β-catenin/TCF transcriptional activity and colon tumor cell growth by dual inhibition of PDE5 and 10” (Oncotarget, 2015)
pIC50: −log10 of the molar value. Read-outs that look alike come from different tables or passages of the source.

Legend:
[1] = test system: β-catenin signaling in HCT116 colon tumor cells; assay: Western blotting of β-catenin, cyclin D1, survivin, HCT116; type: cell-based, human
Procedure: Western blotting was performed as described previously. Cells were treated with ADT-094 or vehicle for 8 hours before cell lysates were collected.

[2] = test system: HCT116 colon tumor cells; assay: Growth assay (Cell Titer Glo), HCT116; type: cell-based, human; conditions: for HCT116 colon tumor cell growth: in words, Figure 1B; for pIC50: Homo sapiens, HCT-116, 72 h
Procedure: All cell lines were expanded upon delivery, and numerous aliquots of low passage cells were preserved in liquid N2. Cells were passaged no longer than 2 months. Tumor cell lines obtained from ATCC were characterized by STR profiling as performed by ATCC. The NCM460 line was characterized by INCELL as described previously (e.g. tumorigenicity testing). No additional re-authentication of the cell lines was performed except for experimental reasons (e.g. confirmation of cell doubling time, morphology, sensitivity to SS, PDE5/10 expression levels, etc). Cells were plated in 96-well microtiter plates at a density of 5,000 cells per well. For drug treatment, cells were treated with compound or vehicle, and incubated at 37°C for 72 hours. […] For siRNA assays, cells were transfected with siRNA under the same condition described above. The effect of treatment on cell growth was measured using the Cell Titer Glo Assay as specified by the manufacturer (Promega). The IC50 values were determined as described previously. All experiments were repeated a minimum of three times to determine the reproducibility of the results. All error bars represent standard error of the mean (SEM). Statistical analysis of differences between samples was performed using the Student’s t-test.

[3] = test system: NCM460 normal colonocytes; conditions: as previously reported; cited from earlier work
[4] = test system: β-catenin/TCF transcriptional activity in HCT116 cells; type: cell-based; conditions: HCT116, 24 hours of treatment
Procedure: Cells were seeded at a density of 5 × 10^4 cells per well in 24-well tissue culture plates and incubated overnight at 37°C. Cells were transiently transfected with 0.1 μg TOP-FLASH constructs (Millipore) and 0.1 μg β-galactosidase-expressing vector (Promega). After 24 hours of transfection, cells were treated with ADT-094 or vehicle for 24 hours. At the end of treatment, cells were lysed and both luciferase and β-galactosidase activities were measured using kits from Promega. All luciferase activity was normalized to β-galactosidase activity.

[5] = test system: cGMP PDE activity in HCT116 lysates; assay: cGMP hydrolysis in lysates from HCT116 colon tumor cells; type: biochemical, human; conditions: in words, Figure 1C
Procedure: (§1) PDE activity was measured using the IMAP fluorescence polarization (FP) PDE assay (Molecular Devices) in which binding of hydrolyzed fluorescent cyclic nucleotide substrate to the IMAP reagent increases FP as described previously.

[6] = target: T1, PDE10 (Homo sapiens, UniProt Q9Y233); assay: IMAP fluorescence polarization PDE assay, recombinant PDE10; type: biochemical; conditions: recombinant enzyme
T1 construct: purchased BPS Biosciences
T1 sequence (Q9Y233 267-1055): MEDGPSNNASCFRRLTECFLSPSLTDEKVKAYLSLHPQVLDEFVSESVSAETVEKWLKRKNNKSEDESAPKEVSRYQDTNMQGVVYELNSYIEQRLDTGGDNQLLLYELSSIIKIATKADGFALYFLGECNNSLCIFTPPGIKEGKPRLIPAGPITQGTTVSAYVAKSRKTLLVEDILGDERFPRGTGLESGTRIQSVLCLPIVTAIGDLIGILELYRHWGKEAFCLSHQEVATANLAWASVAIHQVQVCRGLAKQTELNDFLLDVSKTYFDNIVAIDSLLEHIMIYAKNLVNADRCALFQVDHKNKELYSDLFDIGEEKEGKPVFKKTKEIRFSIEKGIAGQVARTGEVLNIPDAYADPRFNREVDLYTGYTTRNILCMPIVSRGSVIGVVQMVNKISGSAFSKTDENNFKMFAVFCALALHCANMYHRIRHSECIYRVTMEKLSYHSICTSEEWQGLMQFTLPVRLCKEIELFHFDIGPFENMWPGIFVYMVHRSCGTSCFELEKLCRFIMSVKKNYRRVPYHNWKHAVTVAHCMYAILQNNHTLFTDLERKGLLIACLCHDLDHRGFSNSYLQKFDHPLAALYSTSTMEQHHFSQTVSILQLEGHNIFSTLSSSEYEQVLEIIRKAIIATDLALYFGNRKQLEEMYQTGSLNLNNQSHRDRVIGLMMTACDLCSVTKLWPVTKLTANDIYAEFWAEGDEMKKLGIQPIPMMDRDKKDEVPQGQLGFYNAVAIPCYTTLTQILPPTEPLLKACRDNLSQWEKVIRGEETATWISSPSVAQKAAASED
Procedure: (§2) Recombinant PDE isozymes were purchased from BPS Biosciences. The PDE10 antibody was purchased from GeneTex, while the PDE5 antibody was purchased from Cell Signaling Technologies. Non-targeting control siRNA and PDE10 specific siRNAs were purchased from Qiagen. RNAiMAX transfection reagent was purchased from Invitrogen. DMSO was used as vehicle for all compounds unless otherwise noted. All other reagents were purchased from Sigma.
as §1
(§3) The IC50 values were determined as described previously. All experiments were repeated a minimum of three times to determine the reproducibility of the results. All error bars represent standard error of the mean (SEM). Statistical analysis of differences between samples was performed using the Student’s t-test. A P value of < 0.05 was considered statistically significant.

[7] = target: T2, purified ovine COX-1 (Ovis aries, UniProt P05979); assay: COX-1 colorimetric assay; type: biochemical
T2 construct: purchased Cayman
T2 sequence (P05979 25-600): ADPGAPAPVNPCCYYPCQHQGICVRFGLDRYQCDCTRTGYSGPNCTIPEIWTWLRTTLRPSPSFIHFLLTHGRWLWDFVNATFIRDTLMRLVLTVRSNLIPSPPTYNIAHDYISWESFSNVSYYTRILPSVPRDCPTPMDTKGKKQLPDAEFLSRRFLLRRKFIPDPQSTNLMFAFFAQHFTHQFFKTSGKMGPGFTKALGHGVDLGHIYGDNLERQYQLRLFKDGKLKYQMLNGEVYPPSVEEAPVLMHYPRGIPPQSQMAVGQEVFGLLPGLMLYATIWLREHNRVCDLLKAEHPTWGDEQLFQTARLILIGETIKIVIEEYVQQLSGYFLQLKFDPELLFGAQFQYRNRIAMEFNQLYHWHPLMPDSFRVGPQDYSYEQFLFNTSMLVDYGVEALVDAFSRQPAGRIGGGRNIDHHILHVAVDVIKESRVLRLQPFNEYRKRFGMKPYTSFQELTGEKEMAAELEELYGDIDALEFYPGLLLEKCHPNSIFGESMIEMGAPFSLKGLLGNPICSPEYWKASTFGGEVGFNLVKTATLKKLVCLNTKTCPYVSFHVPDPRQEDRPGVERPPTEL
Procedure: COX-1 and COX-2 activities were measured using purified ovine COX-1 and COX-2 with colorimetric assay kits obtained from Cayman as previously reported. The activities of COX-1 and COX-2 were measured after the addition of arachidonic acid and incubation at 25°C for 5 min by absorbance at 590 nm as specified by the manufacturer.
as §3

[8] = target: T3, PDE5 (Homo sapiens, UniProt O76074); assay: IMAP fluorescence polarization PDE assay, recombinant PDE5; type: biochemical; conditions: recombinant enzyme
T3 construct: purchased BPS Biosciences
Procedure: as §2, §1, §3

[9] = test system: HT29 colon tumor cells; assay: Growth assay (Cell Titer Glo), HT29; type: cell-based; conditions: Homo sapiens, HT-29, 72 h
Procedure: (§4) Human colon tumor cell lines, HCT116, HT29, SW480 and Caco-2 were obtained from the American Type Culture Collection (ATCC) and grown under standard cell culture conditions in RPMI 1640 medium containing 5% serum at 37°C in a humidified atmosphere with 5% CO2. The human colonocyte line, NCM460, that is derived from normal human colon mucosa was obtained from INCELL and grown in INCELL’s enriched M3:10 medium with 10% serum as recommended by supplier. All cell lines were expanded upon delivery, and numerous aliquots of low passage cells were preserved in liquid N2. Cells were passaged no longer than 2 months. Tumor cell lines obtained from ATCC were characterized by STR profiling as performed by ATCC. The NCM460 line was characterized by INCELL as described previously (e.g. tumorigenicity testing). No additional re-authentication of the cell lines was performed except for experimental reasons (e.g. confirmation of cell doubling time, morphology, sensitivity to SS, PDE5/10 expression levels, etc).
(§5) Cells were plated in 96-well microtiter plates at a density of 5,000 cells per well. For drug treatment, cells were treated with compound or vehicle, and incubated at 37°C for 72 hours. All growth assays were performed in 5% serum unless otherwise noted. Deionized water was used as vehicle control for papaverine. For siRNA assays, cells were transfected with siRNA under the same condition described above. The effect of treatment on cell growth was measured using the Cell Titer Glo Assay as specified by the manufacturer (Promega).
as §3

[10] = test system: NCM460 normal colonocytes; assay: Growth assay (Cell Titer Glo), NCM460 normal colonocytes; type: cell-based, human; conditions: Homo sapiens, NCM460, 72 h, read-out: NCM460 growth IC50
Procedure: as §4, §5, §3

SMILES	expression of survivin [1]	β-catenin levels [1]	HCT116 colon tumor cell growth [2]	growth of colonocytes [3]	β-catenin/TCF transcriptional activity [4]	cGMP hydrolysis in HCT116 lysates [5]	pIC50 [6]	pIC50 ([2]; read-out: HCT116 growth IC50, 72 hours of treatment)	pIC50 ([2]; read-out: HCT116 growth IC50, Figure 3C, luciferase-based ATP assay, 72 hours)	pIC50 [7]	pIC50 [8]	pIC50 ([9]; read-out: HT29 growth IC50, 72 hours of treatment)	pIC50 ([9]; read-out: HT29 growth IC50, Figure 3C, luciferase-based ATP assay, 72 hours)	pIC50 [10]
Clc1cccc(Nc2nnc(-c3ccccc3)c3ccccc23)c1 [MY5445, 1-(3-chlorophenylamino)-4-phenylphthalazine]	reduced	reduced	effectively inhibit	did not significantly affect	reduced	inhibited cGMP hydrolysis								
CSc1ccc(/C=C2/C(C)=C(CC(=O)O)c3cc(F)ccc32)cc1 [SS, Sulindac sulfide, reference compound]							4.15	4.29	4.29	5.92	4.42	4.17	4.20	< 4.00
COc1ccc(Cc2nccc3cc(OC)c(OC)cc23)cc1OC [papaverine]	reduced	reduced	effectively inhibit	did not significantly affect	reduced	inhibited cGMP hydrolysis								
